One data set has as its system mouse fibrosarcoma M5076. Put plainly: anti-tumor effect in mice inoculated subcutaneously with M5076 fibrosarcoma. The data set is classed as in vivo, mouse (female BDF1). The note with it: M5076 s.c. in mice. The protocol:
The test animals used were female mice, 8 weeks old, of the BDF1 strain, weighing 20-25 g. The mice were purchased from Charles River Japan Inc., Kanagawa, Japan. The mice were divided into experimental groups, each group containing 6 mice, and all mice within each group were treated identically. Each mouse was inoculated subcutaneouly with 1×10^6viable cells (the number of cells was measured by a dye exclusion method under microscopy) of the mouse fibrosarcoma M5076.
The test compounds (80 mg) listed in the following Table, except radicicol, were dissolved in 0.2 ml of N,N-dimethylacetamide (DMA) and to the solution was added 0.2 ml of 40° C.-warmed HCO60 (polyoxyethylene hydrogenated caster oil 60). Immediately thereafter 3.6 ml of 40° C.-warmed physiological saline was added to form a colloidal solution or a suspension. The final concentration of DMA and HCO60 was 5% v/v, each. Radicicol was dissolved in […] of DMA and the solution was dispersed slowly into 3.75 ml of 10% Emulphor(trade mark)-physiological saline stirred well with a stirring rod. The final concentration of DMA was 6.25%. The solution was administered intravenously (in the case of a suspension it was administered intraperitoneally) on the first, fifth and ninth days following inoculation of the fibrosarcoma cells. The period for which the mice survived and the % inhibition of tumor growth were determined. A control group was treated identically, except that no active compound was administered.
The anti-tumor effect is shown in the following Table as the increase in life span [ILS (%)] and the growth inhibition [GI (%)], calculated from the following equations [R. I. Geran et al., Cancer Chemother. Rept., 3 (1972)]:
Dt=median survival time (days) of mice in the treated group; and
Dc=median survival time (days) of mice in the control group.
In this experiment, Dc was 40-47 days.
TDt=average value of tumor sizes on the fourteenth day in the treated group; and
TDc=average value of tumor sizes on the fourteenth day in the control group tumor size=(tumor length+tumor width )/2.

Data set [1] relates to tumor cells of the mouse mastocytoma P-815. As to conditions: cited from earlier work.
For the next data set, the system named is various types of tumor. The experiment in a line: anti-tumor activity against various types of tumor in vivo. The source says: It is believed that the relative inactivity in vivo compared to the good activity in vitro may be a result of an instability of the compound to a component of the mammalian metabolism.
The next data set relates to fungi (anti-fungal). As to conditions: in words; cited from earlier work.
The conditions of data set [2]: in words; cited from earlier work.
The mark [3] stands for this setting: Mus musculus, 336 h, 200 mg/kg iv on days 1, 5 and 9, tumor size on day 14, read-out: growth Inhibition (%).
Where [4] appears, read: Mus musculus, 200 mg/kg iv on days 1, 5 and 9, median survival vs control (Dc 40-47 days), read-out: ILS (%) (increase in life span).

Where two headings read alike, the source gives them in different places.

Turning to `CCCCCCCCCCCCCCCC(=O)Oc1cc(OC(=O)CCCCCCCCCCCCCCC)c2c(c1Cl)CC(=O)/C=C/C=C\[C@H]1O[C@@H]1C[C@@H](C)OC2=O` [Compound 25, 14,16-dipalmitoylradicicol], the inhibition in vivo at 200 mg/kg in the data set with mouse fibrosarcoma M5076 (setting [3]) is 100%. Further, in the data set on mouse fibrosarcoma M5076 (setting [4]), the ILS at 200 mg/kg is 43%.
As for `C[C@@H]1C[C@H]2O[C@@H]2/C=C\C=C\C(=O)Cc2c(Cl)c(O)cc(O)c2C(=O)O1` [radicicol], in data set [1], the “inhibitory effect in vitro on the growth of tumor cells” value was “strong inhibitory effect”. Besides, the “anti-tumor activity in vivo” value in the data set on various types of tumor is on record as “little anti-tumor activity”. In addition, the “antibiotic activity (nature of)” value in the data set with fungi (anti-fungal) was “strictly anti-fungal”. Moreover, the inhibition in vivo at 150 mg/kg with mouse fibrosarcoma M5076 (Mus musculus, 336 h, 150 mg/kg iv on days 1, 5 and 9, tumor size on day 14, read-out: growth Inhibition (%)) worked out at 5%. Further, in the data set with mouse fibrosarcoma M5076 (Mus musculus, 150 mg/kg iv on days 1, 5 and 9, median survival vs control (Dc 40-47 days), read-out: ILS (%) (increase in life span)), the ILS at 150 mg/kg was -29%. Also, in data set [2], the “effect on the central nervous system” value is “without having any effect on the central nervous system” and the tranquilizing activity entry was “relatively strong tranquilizing activity”.
Consider `CCCCCCCC/C=C\CCCCCCCC(=O)Oc1cc(OC(=O)CCCCCCC/C=C\CCCCCCCC)c2c(c1Cl)CC(=O)/C=C/C=C\[C@H]1O[C@@H]1C[C@@H](C)OC2=O` [72(cis), 14,16-dioleoylradicicol], for which the inhibition in vivo at 200 mg/kg in the data set on mouse fibrosarcoma M5076 (setting [3]) was determined as 80%. Moreover, the ILS at 200 mg/kg in the data set with mouse fibrosarcoma M5076 (setting [4]) is 4%.
On the same counts, the results for `CCCCCCCCCCCC(=O)Oc1cc(OC(=O)CCCCCCCCCCC)c2c(c1Cl)CC(=O)/C=C/C=C\[C@H]1O[C@@H]1C[C@@H](C)OC2=O` [Compound 17, 14,16-dilauroylradicicol] are 89% and 24%.
For the molecule `CC/C=C\C/C=C\C/C=C\CCCCCCCC(=O)Oc1cc(OC(=O)CCCCCCC/C=C\C/C=C\C/C=C\CC)c2c(c1Cl)CC(=O)/C=C/C=C\[C@H]1O[C@@H]1C[C@@H](C)OC2=O` [Compound 76, 14,16-dilinolenoylradicicol], the “ILS (%) (increase in life span)” value in the data set on mouse fibrosarcoma M5076 (200 mg/kg iv on days 1, 5 and 9, median survival vs control (Dc 40-47 days)) was 11%. In addition, in the data set with mouse fibrosarcoma M5076 (200 mg/kg iv on days 1, 5 and 9, tumor size on day 14), the “growth Inhibition (%)” value is 74%.
As for `CCCCCCCC/C=C/CCCCCCCC(=O)Oc1cc(OC(=O)CCCCCCC/C=C/CCCCCCCC)c2c(c1Cl)CC(=O)/C=C/C=C\[C@H]1O[C@@H]1C[C@@H](C)OC2=O` [72(trans), 14,16-dielaidoylradicicol], the inhibition in vivo at 200 mg/kg in the data set on mouse fibrosarcoma M5076 (setting [3]) worked out at 86%. In addition, the ILS at 200 mg/kg with mouse fibrosarcoma M5076 (setting [4]) amounted to 9%.
On the same counts, the results for `CCCCCCCCCCCCCCC(=O)Oc1cc(OC(=O)CCCCCCCCCCCCCC)c2c(c1Cl)CC(=O)/C=C/C=C\[C@H]1O[C@@H]1C[C@@H](C)OC2=O` [Compound 23, 14,16-dipentadecanoylradicicol] are 95% and 35%.
Take `CCCCCCCCCCCCCCCCC(=O)Oc1cc(OC(=O)CCCCCCCCCCCCCCCC)c2c(c1Cl)CC(=O)/C=C/C=C\[C@H]1O[C@@H]1C[C@@H](C)OC2=O` [Compound 28, 14,16-diheptadecanoylradicicol]: the inhibition in vivo at 200 mg/kg in the data set on mouse fibrosarcoma M5076 (setting [3]) worked out at 95%. The ILS at 200 mg/kg in the data set on mouse fibrosarcoma M5076 (setting [4]) is 27%.
Turning to `CCCCCCCCCCCCCC(=O)Oc1cc(OC(=O)CCCCCCCCCCCCC)c2c(c1Cl)CC(=O)/C=C/C=C\[C@H]1O[C@@H]1C[C@@H](C)OC2=O` [Compound 21, 14,16-dimyristoylradicicol], the inhibition in vivo at 200 mg/kg in the data set with mouse fibrosarcoma M5076 (setting [3]) was 91%. In addition, the ILS at 200 mg/kg with mouse fibrosarcoma M5076 (setting [4]) was 35%.
Turning to `CCCCCCCCCCCCCCCCCC(=O)Oc1cc(OC(=O)CCCCCCCCCCCCCCCCC)c2c(c1Cl)CC(=O)/C=C/C=C\[C@H]1O[C@@H]1C[C@@H](C)OC2=O` [Compound 31, 14,16-distearoylradicicol], in the data set on mouse fibrosarcoma M5076 (Mus musculus, 336 h, 200 mg/kg ip on days 1, 5 and 9, tumor size on day 14, read-out: growth Inhibition (%)), the inhibition in vivo at 200 mg/kg was 66%. In addition, the ILS at 200 mg/kg with mouse fibrosarcoma M5076 (Mus musculus, 200 mg/kg ip on days 1, 5 and 9, median survival vs control (Dc 40-47 days), read-out: ILS (%) (increase in life span)) was -4%.
As to `CCCCCCCCCCCCC(=O)Oc1cc(OC(=O)CCCCCCCCCCCC)c2c(c1Cl)CC(=O)/C=C/C=C\[C@H]1O[C@@H]1C[C@@H](C)OC2=O` [Compound 19, 14,16-ditridecanoylradicicol], in the data set with mouse fibrosarcoma M5076 (setting [3]), the inhibition in vivo at 200 mg/kg is 89%. Further, the ILS at 200 mg/kg with mouse fibrosarcoma M5076 (setting [4]) was 9%.
`CCCCCC/C=C\CCCCCCCC(=O)Oc1cc(OC(=O)CCCCCCC/C=C\CCCCCC)c2c(c1Cl)CC(=O)/C=C/C=C\[C@H]1O[C@@H]1C[C@@H](C)OC2=O` [Compound 70, 14,16-dipalmitoleoylradicicol]: the inhibition in vivo at 200 mg/kg in the data set on mouse fibrosarcoma M5076 (setting [3]) stood at 65%. Further, the ILS at 200 mg/kg in the data set with mouse fibrosarcoma M5076 (setting [4]) came to 31%.

The record behind these values is patent US5650430A, “Radicicol derivatives, their preparation and their anti-tumor activity” (Sankyo Company, Limited, priority 1990, dated 1997).
